Where two headings read alike, the source gives them in different places.
What was measured:
[1] = rat, in vivo, po
Text: (§1) For the pharmacokinetic (PK) study, three groups (n = 6 each) of rats were orally administered RPM extract (6, 18, and 36 g/kg). In the plasma pharmacokinetics experiment, doses were 6, 18, and 36 g/kg for the single administration group and 18 g/kg for the continuous administration group. The doses were set at a subtoxic level ([Zhang et al., 2013]; [Wang et al., 2015]) to investigate the pharmacokinetic profiles of the constituents of RPM (36 g/kg group) and were approximately 60 times the upper dose (6 g/day) for humans recommended by the 2020 edition of Chinese Pharmacopoeia ([Chinese Pharmacopoeia Commission, 2020]), which was converted to a dose for rats based on body surface area conversion ([Reagan-Shaw et al., 2008]). In addition, the low and medium doses decreased in a certain proportion. Serial blood samples (∼120 μL; before dosing and at 5, 15, and 30 min, and 1, 2, 4, 6, 8, 12, and 24 h after administration) were collected in heparinized tubes from the orbital sinus under light isoflurane. The blood samples were centrifuged at 12000 g for 2 min, and the plasma fractions were decanted and frozen at −70°C until analysis.
(§2) Samples were prepared using the protein precipitation process. Rat plasma (50 μL) spiked with 10 μL of IS (puerarin 100 ng/ml) was extracted with 150 μL acetonitrile. After vortex shaking for 5 min and centrifugation at 14,000 g for 5 min, 150 μL of the organic layer was transferred to a clean tube and evaporated to dryness at 25°C under a stream of nitrogen. The residue was reconstituted in 50 μL of the initial mobile phase and subjected to another round of centrifugation at 14,000 g for 5 min, and 5 μL of the supernatant was injected for LC–MS/MS analysis.
(§3) The analysis was performed on an AB Sciex API 5500 Q Trap mass spectrometer (Toronto, Canada), interfaced with a Waters Acquity UPLC separation module.
(§4) The pharmacokinetic parameters, including the area under the plasma concentration-time curve from time zero to time t (AUC0-t) to time infinity (AUC0-∞), the time to reach the maximum plasma concentration (T max), the elimination half-time (t 1/2), and the maximum plasma concentration (C max), were calculated using the pharmacokinetic software Phoenix® WinNonlin®, version 7.0 (Scientific Consulting Inc., Apex, NC, United States). Data are expressed as the mean ± standard deviation (SD) for each group. The dose-exposure relationship was evaluated by the power function model combined with the confidence interval method ([Smith et al., 2000]; [Sethuraman et al., 2007]; [Hummel et al., 2009]). First, the administration dose, AUC0-∞ and C max were logarithmically transformed, and then a linear regression was performed to obtain the curve correlation coefficient (R^2), slope and 90% confidence interval (90% CI).

[2] = rat, in vivo, po, 36 g/kg; cited from earlier work
in vivo [3] = details: Sprague-Dawley, rat, po, 18 g/kg
Experimental: For the tissue distribution study, 18 rats were randomly divided into three groups (n = 6, each) and orally administered 18 g/kg RPM extract. The rats under isoflurane anesthesia were sacrificed by bleeding from the abdominal aorta at 5, 15, and 60 min (six rats per time point) after gavage with 18 g/kg RPM extract. Subsequently, the heart, liver, spleen, lung, kidney, brain, stomach, small intestine, bladder, and gonads (testes of male rats, and uterus and ovaries of female rats) were immediately collected. An accurately weighed amount of fresh tissue sample (0.25 g) was individually homogenized with normal saline (1 ml) and transferred (50 μL) as a tissue homogenate to 1.5 ml centrifuge tubes for use as the tissue samples. All tissue samples were stored at −70°C until analysis.
Samples were prepared using the protein precipitation process. […] The tissue samples were homogenized in four parts of ice-cold 0.9% saline solution and then centrifuged at 4°C and 12,000 × g for 10 min to obtain tissue homogenates. […] Tissue homogenate, urine, bile and fecal samples were subjected to a similar process as the rat plasma samples.
For the tissue distribution study, 18 rats were randomly divided into three groups (n=6, each), and orally administered with 18 g/kg RPM extract. The rats were sacrificed at 5, 15, 60 min after orally administering RPM. Subsequently, the heart, liver, spleen, lung, kidney, brain, stomach, small intestine, bladder, gonad (testes of male rats, uterus and ovaries of female rats) were immediately collected. An accurately weighed amount of fresh tissue sample (0.25 g) was individually homogenized with normal saline (1 mL) and transferred (50 μL) as a tissue homogenate to 1.5 mL centrifuge tubes for use as the tissue samples.

in vivo [4] = details: Sprague-Dawley, rat, po
Text: as §1, §2, §3, §4

[5] = rat, in vivo
Experimental: as §4

time at which C max was exhibited [1]: ≤ 20 min
AUC(0-t) (in vivo [3]; both, AUC0-t in bladder): 0.0604 µM·h
AUC(0-t) (in vivo [3]; both, AUC0-t in brain): 0.00583 µM·h
AUC(0-t) (in vivo [3]; both, AUC0-t in heart): 0.65 µM·h
AUC(0-t) (in vivo [3]; both, AUC0-t in intestine): 0.211 µM·h
AUC(0-t) (in vivo [3]; both, AUC0-t in kidney): 0.587 µM·h
AUC(0-t) (in vivo [3]; both, AUC0-t in liver): 1.6 µM·h
AUC(0-t) (in vivo [3]; both, AUC0-t in lung): 0.58 µM·h
AUC(0-t) (in vivo [3]; both, AUC0-t in spleen): 0.873 µM·h
AUC(0-t) (in vivo [3]; both, AUC0-t in stomach): 0.783 µM·h
AUC(0-t) (in vivo [3]; female, AUC0-t in ovary): 0.227 µM·h
AUC(0-t) (in vivo [3]; female, AUC0-t in uterus): 0.104 µM·h
AUC(0-t) (in vivo [3]; male, AUC0-t in testis): 0.0137 µM·h
AUC(0-inf) (in vivo [4]; 6 g/kg): 0.0961 ± 0.0171 µM·h
AUC(0-t) (in vivo [4]; 6 g/kg): 0.0872 ± 0.0215 µM·h
Cmax (in vivo [4]; 6 g/kg): 41.2 ± 8.8 nM
MRT inf (in vivo [4]; 6 g/kg): 6.87 ± 1.42 h
Tmax (in vivo [4]; 6 g/kg): 15 min
half-life (in vivo [4]; 6 g/kg): 304 ± 79.2 min
AUC(0-inf) (in vivo [4]; 18 g/kg): 0.558 ± 0.499 µM·h
AUC(0-t) (in vivo [4]; 18 g/kg): 0.416 ± 0.251 µM·h
Cmax (in vivo [4]; 18 g/kg): 349 ± 216 nM
MRT inf (in vivo [4]; 18 g/kg): 5.69 ± 1.57 h
half-life (in vivo [4]; 18 g/kg): 227 ± 45 min
Conclusion (dose-exposure relationship) [5]: Uncertainty of linear relationship
Compound: O=C1c2cc(O)cc(O)c2C(=O)c2c(O)cc(CO)cc21 [Citreorosein]
AUC0-∞ [2]: 468 ± 337 nmol·h/L
AUC(0-t) [2]: 458 ± 338 nmol·h/L
Cmax [2]: 521 ± 512 nM

— paper PMC8899820, “Pharmacokinetics, Tissue Distribution, and Excretion Characteristics of a Radix Polygoni Multiflori Extract in Rats” (Frontiers in Pharmacology, 2022)
